Test results: PubChem BioAssay (NCI)
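Cells were grown in 96-well plates and exposed to each compound for 48 hours at five concentrations; endpoints were interpolated linearly between bracketing concentrations, or set to the highest concentration if not reached. The concentration for full growth arrest is given as TGI.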

Key:
Test in all cases: inhibition of tumour cell growth, NCI panel, 48 h
786-0 renal = system: 786-0 renal
CCRF-CEM leukemia = system: CCRF-CEM leukemia
HOP-62 NSCLC = system: HOP-62 NSCLC
MCF7 breast = system: MCF7 breast
DU-145 prostate = system: DU-145 prostate
U251 CNS = system: U251 CNS
OVCAR-4 ovarian = system: OVCAR-4 ovarian
MDA-MB-435 = system: MDA-MB-435
UACC-257 melanoma = system: UACC-257 melanoma
SK-MEL-28 melanoma = system: SK-MEL-28 melanoma
NCI-H522 lung = system: NCI-H522 lung
NCI-H460 lung = system: NCI-H460 lung
SK-MEL-5 melanoma = system: SK-MEL-5 melanoma
KM12 colon = system: KM12 colon
LOX IMVI melanoma = system: LOX IMVI melanoma
CAKI-1 renal = system: CAKI-1 renal
HT29 colon = system: HT29 colon
RPMI-8226 leukemia = system: RPMI-8226 leukemia
MDA-N = system: MDA-N
K-562 leukemia = system: K-562 leukemia
IGROV1 ovarian = system: IGROV1 ovarian
SK-MEL-2 melanoma = system: SK-MEL-2 melanoma
HCC-2998 colon = system: HCC-2998 colon
COLO 205 colon = system: COLO 205 colon
PC-3 prostate = system: PC-3 prostate
SNB-19 CNS = system: SNB-19 CNS
UO-31 renal = system: UO-31 renal
NCI-H23 lung = system: NCI-H23 lung
SF-539 CNS = system: SF-539 CNS
HCT-116 colon = system: HCT-116 colon
M14 melanoma = system: M14 melanoma
EKVX NSCLC = system: EKVX NSCLC
BT-549 breast = system: BT-549 breast
OVCAR-8 ovarian = system: OVCAR-8 ovarian
SR leukemia = system: SR leukemia
SF-295 CNS = system: SF-295 CNS
OVCAR-5 ovarian = system: OVCAR-5 ovarian
OVCAR-3 ovarian = system: OVCAR-3 ovarian
SK-OV-3 ovarian = system: SK-OV-3 ovarian
ACHN renal = system: ACHN renal
A549 NSCLC = system: A549 NSCLC
HL-60(TB) leukemia = system: HL-60(TB) leukemia
MOLT-4 leukemia = system: MOLT-4 leukemia
NCI/ADR-RES ovarian = system: NCI/ADR-RES ovarian
A498 renal = system: A498 renal
MALME-3M melanoma = system: MALME-3M melanoma
SF-268 CNS = system: SF-268 CNS
UACC-62 melanoma = system: UACC-62 melanoma
SW-620 colon = system: SW-620 colon
HCT-15 colon = system: HCT-15 colon
SN12C renal = system: SN12C renal
NCI-H226 lung = system: NCI-H226 lung
T-47D breast = system: T-47D breast
MDA-MB-231 breast = system: MDA-MB-231 breast
TK-10 renal = system: TK-10 renal
RXF 393 renal = system: RXF 393 renal
HS 578T breast = system: HS 578T breast

CCCCCCc1cc2cc(C(=O)Nc3ccc(F)cc3)c(=N)oc2cc1O
TGI (786-0 renal): 77.6 µM | TGI (CCRF-CEM leukemia): 3.8 µM | TGI (HOP-62 NSCLC): 12.2 µM | TGI (MCF7 breast): 33.7 µM | TGI (DU-145 prostate): 6.78 µM | TGI (U251 CNS): 8.64 µM | TGI (OVCAR-4 ovarian): 23.2 µM | TGI (MDA-MB-435): 10.1 µM | TGI (UACC-257 melanoma): 29.2 µM | TGI (SK-MEL-28 melanoma): 43.5 µM | TGI (NCI-H522 lung): 6.13 µM | TGI (NCI-H460 lung): > 100 µM | TGI (SK-MEL-5 melanoma): 3.28 µM | TGI (KM12 colon): 10.1 µM | TGI (LOX IMVI melanoma): 4.93 µM | TGI (CAKI-1 renal): 13.6 µM | TGI (HT29 colon): > 100 µM | TGI (RPMI-8226 leukemia): 4.96 µM | TGI (MDA-N): 28.1 µM | TGI (K-562 leukemia): 12.3 µM | TGI (IGROV1 ovarian): 4.47 µM | TGI (SK-MEL-2 melanoma): 9.98 µM | TGI (HCC-2998 colon): > 100 µM | TGI (COLO 205 colon): > 100 µM | TGI (PC-3 prostate): 13.5 µM | TGI (SNB-19 CNS): 25.3 µM | TGI (UO-31 renal): 18.4 µM | TGI (NCI-H23 lung): 4.6 µM | TGI (SF-539 CNS): 4.82 µM | TGI (HCT-116 colon): 11.1 µM | TGI (M14 melanoma): 13.2 µM | TGI (EKVX NSCLC): 21.2 µM | TGI (BT-549 breast): 7.32 µM | TGI (OVCAR-8 ovarian): 3.75 µM | TGI (SR leukemia): 8.23 µM | TGI (SF-295 CNS): > 100 µM | TGI (OVCAR-5 ovarian): > 100 µM | TGI (OVCAR-3 ovarian): > 100 µM | TGI (SK-OV-3 ovarian): 8.09 µM | TGI (ACHN renal): > 100 µM | TGI (A549 NSCLC): 14.9 µM | TGI (HL-60(TB) leukemia): 4.62 µM | TGI (MOLT-4 leukemia): 5.59 µM | TGI (NCI/ADR-RES ovarian): 8.94 µM | TGI (A498 renal): > 100 µM | TGI (MALME-3M melanoma): > 100 µM | TGI (SF-268 CNS): 5.61 µM | TGI (UACC-62 melanoma): 8.7 µM | TGI (SW-620 colon): > 100 µM | TGI (HCT-15 colon): 7.62 µM

c1ccc2c(c1)Nc1cccc3c1c-2nc1ccccc13
TGI (CCRF-CEM leukemia): 4.81 µM | TGI (DU-145 prostate): 2.6 µM | TGI (KM12 colon): 3.44 µM | TGI (RPMI-8226 leukemia): 3.48 µM | TGI (SN12C renal): 2.79 µM | TGI (MDA-N): 2.05 µM | TGI (K-562 leukemia): 2.92 µM | TGI (PC-3 prostate): 2.43 µM | TGI (NCI-H226 lung): > 100 µM | TGI (T-47D breast): 5.09 µM | TGI (SNB-19 CNS): > 100 µM | TGI (UO-31 renal): 2.83 µM | TGI (HCT-116 colon): 1.79 µM | TGI (BT-549 breast): > 100 µM | TGI (SR leukemia): 4.83 µM | TGI (MDA-MB-231 breast): 2.69 µM | TGI (ACHN renal): 2.01 µM | TGI (HL-60(TB) leukemia): 3.3 µM | TGI (MOLT-4 leukemia): 1.78 µM | TGI (A498 renal): > 100 µM

Cc1cc(C)nc(NC(P(=O)(O)O)P(=O)(O)O)n1
TGI (786-0 renal): > 100 µM | TGI (HOP-62 NSCLC): > 100 µM | TGI (MCF7 breast): > 100 µM | TGI (DU-145 prostate): > 100 µM | TGI (UACC-257 melanoma): > 100 µM | TGI (NCI-H522 lung): > 100 µM | TGI (NCI-H460 lung): > 100 µM | TGI (TK-10 renal): > 100 µM | TGI (SK-MEL-5 melanoma): > 100 µM | TGI (KM12 colon): > 100 µM | TGI (LOX IMVI melanoma): > 100 µM | TGI (CAKI-1 renal): > 100 µM | TGI (HT29 colon): > 100 µM | TGI (MDA-N): > 100 µM | TGI (IGROV1 ovarian): > 100 µM | TGI (HCC-2998 colon): > 100 µM | TGI (COLO 205 colon): > 100 µM | TGI (PC-3 prostate): > 100 µM | TGI (NCI-H226 lung): > 100 µM | TGI (SNB-19 CNS): > 100 µM | TGI (UO-31 renal): > 100 µM | TGI (NCI-H23 lung): > 100 µM | TGI (SF-539 CNS): > 100 µM | TGI (HCT-116 colon): > 100 µM | TGI (M14 melanoma): > 100 µM | TGI (EKVX NSCLC): > 100 µM | TGI (BT-549 breast): > 100 µM | TGI (RXF 393 renal): > 100 µM | TGI (OVCAR-8 ovarian): > 100 µM | TGI (SF-295 CNS): > 100 µM | TGI (MDA-MB-231 breast): > 100 µM | TGI (OVCAR-5 ovarian): > 100 µM | TGI (OVCAR-3 ovarian): > 100 µM | TGI (SK-OV-3 ovarian): > 100 µM | TGI (ACHN renal): > 100 µM | TGI (A549 NSCLC): > 100 µM | TGI (HS 578T breast): > 100 µM | TGI (NCI/ADR-RES ovarian): > 100 µM | TGI (MALME-3M melanoma): > 100 µM | TGI (SF-268 CNS): > 100 µM | TGI (UACC-62 melanoma): > 100 µM | TGI (HCT-15 colon): > 100 µM
